Laboratory results published in patent publication US20240166594A1, “PHOTOCAGED CITRULLINE ANALOGS AND METHODS FOR SITE-SPECIFIC INCORPORATION OF CITRULLINE INTO PROTEINS” (University of Massachusetts, priority 2021, published 2024).
Like-named read-outs stand apart in the source and are kept apart here.

Assays:
HEK293T cells = experiment: Cytotoxicity of SM60 in HEK293T cells (CellTiter-Blue); type: cell-based; conditions: Homo sapiens, HEK-293T, 48 h, read-out: EC50 for inhibition of cell proliferation
Description: HEK293T cells were seeded (2×10^4 cells/well) on a 96-well plate and grown in DMEM (supplemented with 10% heat-inactivated fetal bovine serum, 100 units/mL penicillin, 100 μg/mL streptomycin) for 48 h. Cells were then treated with DMSO (for control) or various concentrations of SM60. In a separate experiment, cells were briefly (3 min) irradiated with 365 nm UV following SM60 treatment and were allowed to grow at 37° C. for 48 h. Cell viability was measured using CellTiter-Blue® (Promega) by following the manufacturer's protocol. Equation 1,
Y=Bottom+(Top−Bottom)/[1+10^((log EC50−X)*Hillslope)] (1),
was used to fit a ten-point dose-response curve to determine the EC50 values for inhibition of cell-proliferation using GraphPad Prism 8.0. Top and Bottom are plateaus of the dose-response curve, X is the log of SM60-concentration, Hillslope is the slope factor or Hill slope. All the experiments were performed in triplicate.

[1] = Photodecaging to citrulline with 365 nm UV (HPLC, LC-MS, 1H NMR); type: physicochemical; conditions: up to 5 min, PBS pH 7.4 with 2 mM DTT (SM70: 1:1 acetonitrile/PBS)
Excerpt: FIG. 1. SM60, a photocaged-citrulline and its conversion to citrulline with 365 nm UV light. a, Conversion of peptidyl-arginine to peptidyl-citrulline by the PADs. b, Chemical structures of SM60 and SM70. c, Schematic representation of the incorporation of SM60 into proteins by an engineered LeuRS-tRNA^Leu pair and subsequent conversion to citrulline. d, Decaging of SM60 to citrulline with 365 nm UV irradiation. Left and right panels indicate the HPLC and ion chromatograms, showing the disappearance of SM60 and the formation of citrulline (Cit), respectively, with increasing UV exposure. Quantitative analyses of decaging and Cit formation are shown in the insets. Assay mixture: 1 mM SM60, 2 mM DTT, Phosphate-buffered saline pH 7.4.
FIG. 8. ^1H NMR spectrum of SM60 in D2O after UV (365 nm) exposure for 1, 2, 3, 4 and 5 min. […] Furthermore, an upfield shift was also observed for the ‘b’ protons upon the formation of citrulline. The multiplets at 3.6-3.7 and 2.6-2.7 ppm are due to DTT used in the assay. Assay condition: 1 mM SM60, 2 mM DTT, D2O.
FIG. 9. (A) Photodecaging of Fmoc-SM60 to produce Fmoc-Cit. (B) HPLC chromatograms indicating the disappearance of Fmoc-SM60 and the production of Fmoc-Cit with increasing UV exposure. […] Assay mixture: 0.5 mM Fmoc-SM60, 2 mM DTT, Phosphate-buffered saline pH 7.4. ESI-Mass spectra of Fmoc-SM60 (C) and Fmoc-Cit (D).
FIG. 10. […]

[2] = tested on: EcLeuRS-tRNACUA^EcLeu pair; experiment: EGFP-39-TAG reporter expression assay in HEK293T cells; type: cell-based; conditions: EcLeuRS mutant (M40I, Y499I, Y527A, H529G, T252A)
Excerpt: The first two pairs are restricted to structural analogs of phenylalanine and tryptophan, respectively, precluding their use to genetically encode SM60. However, both the archaeal pyrrolysyl (PylRS/tRNA^Pyl) and E. coli leucyl (EcLeuRS-tRNACUA^EcLeu) pairs have been engineered to charge UAAs structurally similar to SM60. […] This property has provided a facile route to rapidly expand the repertoire of genetically encoded UAAs without having to engineer new aaRS mutants for each distinct substrate. To explore if such a polyspecific aaRS can accept SM60 as a substrate, several existing PylRS and EcLeuRS mutants were screened using an EGFP-39-TAG expression assay in HEK293T cells in the presence of their cognate amber suppressor tRNA. […] Furthermore, UV irradiation of cells expressing EGFP-39-SM60 before lysis followed by protein purification and MS analysis afforded a single protein mass consistent with the complete deprotection and incorporation of citrulline at position 39 of EGFP (FIG. 2d).
HEK293T cells were maintained at 37° C. in a humidified incubator supplemented with 5% CO2. […]
EGFP fluorescence was analyzed 48 h after transfection. […] Lysate were clarified by centrifugation at 16,000×g for 10 min and 100 μL of supernatant was transferred to a clear-bottom 96-well plate for fluorescence measurement following previously described protocol. […]

N[C@@H](CCCNC(=O)NCc1ccccc1[N+](=O)[O-])C(=O)O [SM60]
EC50 (HEK293T cells; SM60 alone): > 10 mM
EC50 (HEK293T cells; combination of SM60 and 365 nm UV (3 min)): 4.5 ± 0.2 mM
photodecaging / conversion to citrulline form [1]: quantitatively converted to Cit
EGFP-39-TAG reporter expression [2]: robust expression of the fluorescence reporter only when SM60 was supplemented in the medium
